Reference: ChEMBL document CHEMBL5331068, “Briarane-type diterpenoids, the inhibitors of osteoclast formation by interrupting Keap1-Nrf2 interaction and activating Nrf2 pathway” (Eur J Med Chem, 2023)
Active and inactive are the calls of the source. The rule behind the calls is not given here.

Columns and labels:
[1] = molecular target: MAP kinase p38 (Mus musculus) (UniProt P47811+O08911+Q9WUI1+Q9Z1B7); test: Inhibition of RANKL-induced p38 MAPK phosphorylation in C57BL/6 mouse BMDM cells transfected with Nrf2 siRNA at 10 uM incubated for 60 mins by Western blot analysis; format: cell-based
[2] = molecular target: T1, NF-kappa-B inhibitor alpha (Mus musculus) (UniProt Q9Z1E3); test: Inhibition of RANKL-induced IkappaBalpha phosphorylation in C57BL/6 mouse BMDM cells transfected with Nrf2 siRNA at 10 uM incubated for 60 mins by Western blot analysis; format: cell-based
T1 sequence (whole entry): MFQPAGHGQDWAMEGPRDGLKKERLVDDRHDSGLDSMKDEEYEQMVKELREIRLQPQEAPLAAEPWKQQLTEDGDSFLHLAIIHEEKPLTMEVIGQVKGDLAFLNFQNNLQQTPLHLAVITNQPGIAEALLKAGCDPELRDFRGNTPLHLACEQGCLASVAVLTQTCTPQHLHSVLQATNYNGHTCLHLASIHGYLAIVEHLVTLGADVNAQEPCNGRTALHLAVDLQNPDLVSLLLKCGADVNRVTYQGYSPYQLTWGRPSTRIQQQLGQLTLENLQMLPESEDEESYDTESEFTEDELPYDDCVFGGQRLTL

[3] = test system: BMDM; test: Anti-osteoclastogenesis activity in RANKL-induced C57BL/6 mouse BMDM cells assessed as inhibition of bone resorption by measuring downregulation of Cathepsin K expression at 5 to 10 uM in the presence of M-CSF by Western blot analysis; format: functional, cell-based; settings: dose 5-10 µM
[4] = test system: BMDM; test: Anti-osteoclastogenesis activity in RANKL-induced C57BL/6 mouse BMDM cells assessed as downregulation of TRAP mRNA expression at 5 to 10 uM by qRT-PCR analysis; format: functional, cell-based; settings: dose 5-10 µM
[5] = test system: RAW264.7; test: Anti-osteoclastogenesis activity in RANKL-induced mouse RAW264.7 cells transfected with Nrf2 siRNA assessed as increase in c-fos expression level incubated for 3 days by Western blot analysis; format: functional, cell-based; settings: time 3.0 day
[6] = molecular target: T2, Kelch-like ECH-associated protein 1 (Homo sapiens, UniProt Q14145); test: Binding affinity to recombinant human Keap1 by SPR analysis
[7] = molecular target: Keap1/Nrf2 (Homo sapiens) (UniProt Q16236+Q14145); test: Disruption of 16mer biotinylated Nrf2 (unknown origin)-Keap1 kelch domain (unknown origin) protein-protein interaction upto 100 uM by Biolayer Interferometry assay
[8] = test system: BMDM; test: Anti-osteoclastogenesis activity in RANKL-induced C57BL/6 mouse BMDM cells assessed as inhibition of NFATc1 translocation into nuclei incubated for 3 days by DAPI staining based confocal microscopic analysis; format: functional, cell-based; settings: time 3.0 day
[9] = Cytotoxicity against C57BL/6 mouse BMDM cells incubated for 48 hrs by MTT assay; format: toxicity, cell-based; settings: BMDM cells (bone marrow-derived macrophages)
[10] = test system: BMDM; test: Anti-osteoclastogenesis activity in RANKL-induced C57BL/6 mouse BMDM cells assessed as increase in HO-1 expression at 5 to 10 uM in the presence of M-CSF by Western blot analysis; format: functional, cell-based; settings: dose 5-10 µM
[11] = molecular target: Transcription factor p65 (Mus musculus) (UniProt Q04207); test: Inhibition of RANKL-induced p65 NF-kappaB phosphorylation in C57BL/6 mouse BMDM cells incubated for 60 mins by Western blot analysis; format: cell-based
[12] = molecular target: T2, Kelch-like ECH-associated protein 1; test: Binding affinity to recombinant human Keap1 assessed as equilibrium dissociation constant by SPR analysis
[13] = test system: BMDM; test: Anti-osteoclastogenesis activity in RANKL-induced C57BL/6 mouse BMDM cells assessed as decrease in bone resorption pit number incubated for 10 days in the presence of M-CSF by inverted microscopic analysis; format: functional, cell-based; settings: dose 1-10 µM, time 10.0 day
[14] = test system: BMDM; test: Anti-osteoclastogenesis activity in RANKL-induced C57BL/6 mouse BMDM cells assessed as inhibition of c-Fos protein level at 5 to 10 uM in the presence of M-CSF by Western blot analysis; format: functional, cell-based; settings: dose 5-10 µM
[15] = test system: RAW264.7; test: Anti-osteoclastogenesis activity in RANKL-induced mouse RAW264.7 cells transfected with Nrf2 siRNA assessed as increase in NFATc1 expression level incubated for 3 days by Western blot analysis; format: functional, cell-based; settings: time 3.0 day
[16] = test system: BMDM; test: Anti-osteoclastogenesis activity in RANKL-induced C57BL/6 mouse BMDM cells assessed as suppression of early stage osteoclast differentiation at 10 uM incubated from day 1 to day 3 in the presence of M-CSF by TRAP-staining based microscopic analysis; format: functional, cell-based; settings: time 2.0 day
[17] = molecular target: Kelch-like ECH-associated protein 1/Nuclear factor erythroid 2-related factor 2 (Mus musculus) (UniProt Q60795+Q9Z2X8); test: Disruption of Nrf2 -Keap1 protein-protein interaction in RANKL-induced C57BL/6 mouse BMDM cells incubated for 24 hrs by Western blot based co-immunoprecipitation analysis; format: cell-based
[18] = test system: BMDM; test: Anti-osteoclastogenesis activity in C57BL/6 mouse BMDM cells assessed as reduction in RANKL-induced ROS level at 5 to 10 uM incubated for 6 hrs by DCF-DA staining based fluorescence analysis; format: functional, cell-based; settings: dose 5-10 µM
[19] = test system: BMDM; test: Anti-osteoclastogenesis activity in C57BL/6 mouse BMDM cells transfected with Nrf2 siRNA assessed as inhibition of RANKL-induced osteoclastogenesis at 10 uM incubated for 5 days in the presence of M-CSF by TRAP-staining based microscopic analysis; format: functional, cell-based; settings: time 5.0 day
[20] = test system: BMDM; test: Anti-osteoclastogenesis activity in RANKL-induced C57BL/6 mouse BMDM cells assessed as decrease in bone resorption pit area incubated for 10 days in the presence of M-CSF by inverted microscopic analysis; format: functional, cell-based; settings: dose 1-10 µM, time 10.0 day
[21] = molecular target: Kelch-like ECH-associated protein 1 (Mus musculus) (UniProt Q9Z2X8); test: Binding affinity to Keap1 in mouse RAW264.7 cells assessed as thermal stability at 20 uM preincubated with compound for 1 hrs followed by heating at 37 to 65 degreeC for 3 mins by CETSA; format: cell-based; settings: time 63.0 min
[22] = test system: BMDM; test: Anti-osteoclastogenesis activity in RANKL-induced C57BL/6 mouse BMDM cells assessed as inhibition of NFATc1 protein level at 5 to 10 uM in the presence of M-CSF by Western blot analysis; format: functional, cell-based; settings: dose 5-10 µM
[23] = test system: RAW264.7; test: Anti-osteoclastogenesis activity in RANKL-induced mouse RAW264.7 cells transfected with Nrf2 siRNA assessed as increase in NQO-1 expression level incubated for 3 days by Western blot analysis; format: functional, cell-based; settings: time 3.0 day
[24] = test system: BMDM; test: Anti-osteoclastogenesis activity in RANKL-induced C57BL/6 mouse BMDM cells assessed as decrease in number of F-actin ring formation at 1 to 10 uM incubated for 7 days in the presence of M-CSF by DAPI staining based fluorescence microscopic analysis; format: functional, cell-based; settings: dose 1-10 µM, time 7.0 day
[25] = test system: BMDM; test: Inhibition of osteoclast migration in RANKL-induced C57BL/6 mouse BMDM cells at 10 uM incubated for 48 hrs in the presence of M-CSF by TRAP staining based wound healing assay; format: functional, cell-based
[26] = molecular target: T1, NF-kappa-B inhibitor alpha (Mus musculus); test: Inhibition of RANKL-induced IkappaBalpha phosphorylation in C57BL/6 mouse BMDM cells incubated for 60 mins by Western blot analysis; format: cell-based
[27] = test system: BMDM; test: Anti-osteoclastogenesis activity in RANKL-induced C57BL/6 mouse BMDM cells assessed as elimination of TRAP-positive multinucleated osteoclast incubated for 7 days in the presence of M-CSF by TRAP-staining based microscopic analysis; format: functional, cell-based; settings: dose 1-10 µM, time 7.0 day

T2 sequence (Q14145 whole entry, the tested form may be a part): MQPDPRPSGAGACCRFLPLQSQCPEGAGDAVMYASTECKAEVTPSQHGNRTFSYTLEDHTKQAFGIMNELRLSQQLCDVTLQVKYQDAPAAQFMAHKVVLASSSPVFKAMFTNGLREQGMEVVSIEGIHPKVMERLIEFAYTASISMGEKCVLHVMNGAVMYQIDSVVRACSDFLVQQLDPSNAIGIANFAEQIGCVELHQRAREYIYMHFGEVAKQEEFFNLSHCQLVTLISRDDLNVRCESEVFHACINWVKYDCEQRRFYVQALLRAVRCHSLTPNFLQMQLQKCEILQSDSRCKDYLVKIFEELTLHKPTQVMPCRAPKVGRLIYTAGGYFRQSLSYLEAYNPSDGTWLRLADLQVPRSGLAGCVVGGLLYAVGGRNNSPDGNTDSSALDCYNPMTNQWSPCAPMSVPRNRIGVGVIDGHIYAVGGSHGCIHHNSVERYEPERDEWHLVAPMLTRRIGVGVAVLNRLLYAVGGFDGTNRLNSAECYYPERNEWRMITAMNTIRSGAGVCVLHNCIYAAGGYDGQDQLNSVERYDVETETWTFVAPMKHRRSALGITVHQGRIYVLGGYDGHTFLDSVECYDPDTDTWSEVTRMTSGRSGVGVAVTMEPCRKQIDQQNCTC
Chain of Kelch-like ECH-associated protein 1 (Mus musculus) (Q9Z2X8 whole entry): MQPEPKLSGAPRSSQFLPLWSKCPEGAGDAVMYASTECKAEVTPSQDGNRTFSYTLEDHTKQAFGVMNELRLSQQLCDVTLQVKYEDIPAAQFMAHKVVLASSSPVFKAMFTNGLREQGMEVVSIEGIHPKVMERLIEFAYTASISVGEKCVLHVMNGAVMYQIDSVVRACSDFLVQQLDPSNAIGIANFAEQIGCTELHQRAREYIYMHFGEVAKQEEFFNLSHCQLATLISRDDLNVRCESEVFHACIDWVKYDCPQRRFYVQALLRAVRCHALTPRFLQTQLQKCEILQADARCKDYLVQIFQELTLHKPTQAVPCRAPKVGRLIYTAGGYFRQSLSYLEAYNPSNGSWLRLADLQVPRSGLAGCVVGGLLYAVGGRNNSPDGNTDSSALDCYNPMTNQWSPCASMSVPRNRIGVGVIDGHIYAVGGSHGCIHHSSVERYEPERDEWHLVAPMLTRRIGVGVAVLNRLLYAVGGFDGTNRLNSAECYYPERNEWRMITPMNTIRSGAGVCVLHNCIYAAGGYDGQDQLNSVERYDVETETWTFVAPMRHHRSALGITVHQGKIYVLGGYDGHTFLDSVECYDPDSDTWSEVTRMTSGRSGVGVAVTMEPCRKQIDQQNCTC
Chain of Transcription factor p65 (Mus musculus) (Q04207 whole entry): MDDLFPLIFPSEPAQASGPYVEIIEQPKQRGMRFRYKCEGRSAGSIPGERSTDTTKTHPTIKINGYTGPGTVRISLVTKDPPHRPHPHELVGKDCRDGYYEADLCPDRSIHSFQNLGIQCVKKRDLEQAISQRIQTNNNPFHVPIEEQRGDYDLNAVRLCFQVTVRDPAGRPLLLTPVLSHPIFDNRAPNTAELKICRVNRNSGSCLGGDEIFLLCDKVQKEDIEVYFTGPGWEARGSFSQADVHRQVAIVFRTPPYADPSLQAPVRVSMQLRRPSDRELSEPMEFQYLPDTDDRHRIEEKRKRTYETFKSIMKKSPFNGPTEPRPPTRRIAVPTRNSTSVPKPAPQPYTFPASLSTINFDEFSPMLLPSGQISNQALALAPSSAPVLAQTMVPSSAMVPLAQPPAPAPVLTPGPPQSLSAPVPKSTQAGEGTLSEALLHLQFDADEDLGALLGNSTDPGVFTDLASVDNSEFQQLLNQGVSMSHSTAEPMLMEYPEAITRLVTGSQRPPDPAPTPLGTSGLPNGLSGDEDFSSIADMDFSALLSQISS
Chain of Kelch-like ECH-associated protein 1/Nuclear factor erythroid 2-related factor 2 (Mus musculus) (Q60795 whole entry, looked up): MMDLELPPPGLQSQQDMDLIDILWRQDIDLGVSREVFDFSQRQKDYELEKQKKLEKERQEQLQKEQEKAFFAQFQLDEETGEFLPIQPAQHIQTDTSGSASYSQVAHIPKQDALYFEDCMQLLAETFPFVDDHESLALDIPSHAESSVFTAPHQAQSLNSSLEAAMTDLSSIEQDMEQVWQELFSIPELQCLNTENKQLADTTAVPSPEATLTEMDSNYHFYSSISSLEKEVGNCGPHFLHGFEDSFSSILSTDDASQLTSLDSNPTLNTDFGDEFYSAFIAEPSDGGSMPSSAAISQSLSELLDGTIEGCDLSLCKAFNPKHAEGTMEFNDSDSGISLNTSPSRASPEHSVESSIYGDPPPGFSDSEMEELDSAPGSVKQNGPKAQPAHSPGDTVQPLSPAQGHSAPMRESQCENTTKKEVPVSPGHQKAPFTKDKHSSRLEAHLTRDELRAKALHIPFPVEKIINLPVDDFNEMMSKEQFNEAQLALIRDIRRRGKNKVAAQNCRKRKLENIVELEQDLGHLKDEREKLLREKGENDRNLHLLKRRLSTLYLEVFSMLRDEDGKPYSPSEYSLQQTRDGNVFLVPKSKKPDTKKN
Chain of Kelch-like ECH-associated protein 1/Nuclear factor erythroid 2-related factor 2 (Mus musculus) (Q9Z2X8 whole entry, looked up): as the sequence (Q9Z2X8 whole entry) above
Chain of Keap1/Nrf2 (Homo sapiens) (Q14145 whole entry, looked up, the tested form may be a part): as the sequence (Q14145 whole entry, the tested form may be a part) above
Chain of Keap1/Nrf2 (Homo sapiens) (Q16236 whole entry, looked up, the tested form may be a part): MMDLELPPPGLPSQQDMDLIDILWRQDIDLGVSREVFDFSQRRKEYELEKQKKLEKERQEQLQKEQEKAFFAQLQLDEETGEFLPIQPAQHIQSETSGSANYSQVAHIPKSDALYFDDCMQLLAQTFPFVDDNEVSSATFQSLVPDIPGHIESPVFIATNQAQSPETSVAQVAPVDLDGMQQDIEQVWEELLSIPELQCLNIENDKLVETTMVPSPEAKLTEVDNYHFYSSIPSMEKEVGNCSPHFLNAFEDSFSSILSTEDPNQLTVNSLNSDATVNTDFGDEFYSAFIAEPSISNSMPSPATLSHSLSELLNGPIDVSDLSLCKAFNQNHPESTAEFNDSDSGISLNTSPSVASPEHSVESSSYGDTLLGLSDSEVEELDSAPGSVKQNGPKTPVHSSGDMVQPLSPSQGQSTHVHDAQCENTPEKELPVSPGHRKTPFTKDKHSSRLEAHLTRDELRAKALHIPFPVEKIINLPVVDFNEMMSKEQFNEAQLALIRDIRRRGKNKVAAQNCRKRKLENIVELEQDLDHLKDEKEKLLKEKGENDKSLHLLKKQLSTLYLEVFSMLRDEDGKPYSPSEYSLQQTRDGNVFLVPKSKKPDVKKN

- inhibition [1]: inactive
- inhibition [2]: inactive
- Activity [6]: Active
- Activity [7]: Active
- inhibition [11]: Active
- Kd [12]: 6.4 µM
- Activity [17]: Active
- Activity [21]: Active
- inhibition [26]: Active
Compound: C=C1[C@H]2O[C@]3([C@@H](C)C(=O)O[C@H]3[C@H]1Cl)[C@@H](OC(C)=O)[C@H]1[C@]3(CC[C@H](OC(C)=O)[C@]1(C)[C@@H](OC(C)=O)[C@@H]2OC(C)=O)CO3
- Activity [3]: Active
- Activity [4]: Active
- Activity [5]: inactive
- Activity [8]: Active
- CC50 at 48 h [9]: > 50 µM
- Activity [10]: Active
- Activity [13]: Dose-Dependent Effect
- Activity [14]: Active
- Activity [15]: inactive
- Activity [16]: Active
- Activity [18]: Active
- Activity [19]: inactive
- Activity [20]: Dose-Dependent Effect
- Activity [22]: Active
- Activity [23]: inactive
- Activity [24]: Active
- inhibition [25]: Active
- Activity [27]: Dose-Dependent Effect
